From patent publication US11148998B2, “Dimethyl-nonatetraenyl-trimethyl-cyclohexyl compounds and uses thereof” (The Regents of the University of Michigan, priority 2017, dated 2021)
“Also recorded” adds a separate entry of the source.

How the values were obtained:
rhino mouse skin = experiment: Rhino mouse topical treatment: skin histology (horn-filled utriculi, epidermal thickness, inflammation); assay type: in vivo; settings: topical, concentration not given; for inflammatory response / inflammatory cell infiltrate in histological sections (in words): 21 days
Description: FIGS. 12A-C: Efficacy of retinoids at normalizing structure of rhino mouse skin after topical treatment for 21 days.
FIGS. 13A-C: Dose related effect of Example 2 on rhino mouse skin.
The rhinomouse model is an industry-standard pre-clinical model for evaluation of retinoids for anti-acne activity. The mice can be treated topically over a course of days with the desired compound (either formulated or in liquid solvent). During the course of treatment, the animals can be evaluated grossly for skin irritation. At the end of the treatment phase, the animals are euthanized. Skin from treated sites can be evaluated for efficacy—reduction in the number of horn-filled utriculi—and for histological evidence of inflammation.
As a control, Tretinoin-0.1% was used. […] This is a commonly-prescribed anti-acne medicine.
One day after the last treatment, animals were euthanized. The animals were injected with 7 ml 10% buffered formalin after euthanasia. 15 minutes later the treated area on the back of the mouse was removed and cut into 8 pieces. Every other piece was taken, so four pieces of skin were mounted in one cassette and fixed for histology. An extra piece of skin from a non-treated area was also evaluated.
Hematoxylin and eosin stained sections were evaluated microscopically for epidermal thickness with measurements made in the inter-follicular regions at 4 representative sites per tissue strip.
The number of horn-filled utriculi was determined by direct counting in the entire section of skin. Each of the four sections per biopsy was used for determining the number of utriculi. Section lengths were measured as a way to normalize findings. Typically, the section of skin varied from 16-20 mm.
Slides were examined microscopically and inflammation was scored on a 0 to 4+ basis. A score of zero indicated no inflammation while increasing collection of inflammatory cells was identified with increasing score. Slides were also evaluated to determine if inflammation was confined to the dermis or whether there was epidermal inflammation. Dermal inflammation was assessed to determine if inflammatory cells were scattered throughout the dermis or whether small abscesses were also present. Finally, the inflammatory lesions were evaluated to determine whether they consisted of primarily mononuclear cells, granulocytic cells or both. A similar scale has been used previously in the assessment of skin irritation.
At the end of the in-life portion of the study, mice were euthanized by CO2 overdose. Hematoxylin and eosin-stained histological sections from each mouse in the control, ATRA-treated and Compound 2-treated groups were evaluated with regard to the number of horn-filled utriculi, epidermal thickness, and inflammation. Briefly, the epidermis of control mice consisted of a thin epidermis with large numbers of horn-filled utriculi (98+10 per 20 mm of epidermal linear length). […] Both the ATRA-treated mouse (top right panel) the Compound 2 treated skin (bottom panel) show both much thickened […] and disappearance of utriculi. […] There were large numbers of inflammatory cells in the dermis. Microabscesses could be seen in places, and migration of inflammatory cells into the epidermis was also evident. The infiltrate consisted of both mononuclear cells and granulocytes. […] The three other experimental retinoids were also examined along with Compound 2. […] In FIG. 13 it can be seen that during the dosing period 0.1% of Compound 2 led to skin thickening, but incomplete resolution of the utricali, whereas at 0.3% the utricali were more fully resolved.

[1] = test system: serum pro-inflammatory cytokines; settings: mouse, in vivo
Description: Each of the 4 experimental retinoids was made up in DMSO as 0.1% and 0.3% solutions. The material was applied to the treatment area (2 cm^2 area) on a dot marked area on the inter-scapular back) once daily for 7 consecutive days or for 21 consecutive days. The test agent was gently rubbed into the test site after application. As a control, Tretinoin-0.1% was used. […] This is a commonly-prescribed anti-acne medicine. A set amount of the test article, DMSO, DMSO plus test drug, or Tretinoin cream (35 mg) was delivered using a Gilson MICROMAN fully adjustable positive placement pipette.
Serum was obtained from all mice at the end of the study and evaluated for levels of pro-inflammatory cytokines. For this, the same multiplex ELISA used with human samples was employed except that mouse-recognizing antibodies replaced antibodies used to detect the human counterparts.

human dermal fibroblasts [2] = experiment: Generation of pro-inflammatory cytokines by fibroblasts (multiplex ELISA); assay type: cell-based; settings: KBM 1.5 mM calcium, two days, culture fluids
Experimental: Fibroblasts were grown in KBM supplemented with 1.5 mM calcium (i.e., as in the fibroblast cytotoxicity assay) for two days. Culture fluids obtained at the end of the incubation period were assessed for several pro-inflammatory cytokines using a multiplex (ELISA-type) assay. Values shown are means and ranges based on duplicate samples in a single experiment. The experiment was repeated two times with similar results.
It is believed that the pro-inflammatory cytokines are “drivers” of the retinoid-induced skin irritation response. […] In this experiment, fibroblasts were cultured for two days in KBM supplemented with 1.5 mM calcium (i.e., as in the cytotoxicity assay). Culture fluids were collected after two days of incubation and subjected to a multiplex enzyme-linked immunosorbant assay (ELISA) for the following cytokines: TNF-α, IL-1β, IL-6, IL-8, MCP-1 and CXCL-1.

human dermal fibroblasts [3] = experiment: Retinoid-induced fibroblast survival under low-calcium conditions; assay type: cell-based; settings: KBM 0.1 mM calcium, three days, 0.1 to 5 μg/mL
Experimental: Human dermal fibroblasts are isolated from skin biopsies as described previously and grown in monolayer culture using DMEM supplemented with 10% fetal bovine serum as culture medium (see, e.g., Varani J, et al., J Clin Invest. 1994; 94; Varani J, et al., J. Invest. Dermatol. 94:717-723, 1990). Growth is at 37° C. in a humidified atmosphere containing 5% CO2 and 95% air. For experimental studies, cells are plated at 5×10^4 cells per well in wells of a 24-well culture dish in the same culture medium. One day later, cells are washed and the DMEM culture medium is replaced with Keratinocyte Basal Medium (KBM).
In this assay, low-passage human dermal fibroblasts are grown for three days in Keratinocyte Basal Medium (KBM) at a calcium concentration (0.1 mM) that is too low to support survival. […] How retinoids act to prevent fibroblast lysis is not fully understood, but part of the mechanism involves modulation of calcium transit across the cell membrane in the presence of the active retinoids (see, e.g., Varani J, et al., Am. J. Path. 136:1275-1281, 1990; Varani K, et al., Am J. Pathol. 147:718-729, 1995; Varani J, et al., Amer. J. Pathol. 148: 1307-1312, 1996).

[4] = test system: systemic cytokine release; settings: intraperitoneal dosing; cited from earlier work
[5] = test system: human skin in organ culture; settings: cited from earlier work
skin wounds = experiment: Wound healing in rats with steroid-induced atrophic skin; assay type: in vivo, rat
Description: FIGS. 15A-C: Results from a study in rats in which the skin was made atrophic by topical steroid treatment and then wounded. […] In the control animal (15CL), there was incomplete re-epithelialization over the wound and little collagen deposition in the dermis. […] The lack of irritation/inflammation is expected in the control animal but is unusual for a retinoid-treated animal. The data shown here was consistent over n=5 animals per group.
Given the lack of irritation associated with MDI 301, experiments were conducted reasoning that this retinoid might work in the acute wound setting. Essentially, a group of rats were treated with a potent steroid to induce skin atrophy followed by a wounding of the skin. Following this, rats were treated with vehicle alone or with MDI 301. […] It should be noted that in this study ATRA cannot be used, as its irritant properties exacerbate the original injury.

| SMILES | inflammatory response / inflammatory cell infiltrate in histological sections (in words) (rhino mouse skin) | number of utriculi compared to control (in words) (rhino mouse skin) | IL-1β serum level [1] | TNF-α serum level [1] | induction of pro-inflammatory cytokines (TNF-α, IL-1β, IL-6, IL-8, MCP-1, CXCL-1) (human dermal fibroblasts [2]) | protection of fibroblasts from lysis (percentage of initially present cells still viable) (human dermal fibroblasts [3]) | systemic cytokine release [4] | effect on collagen-degrading enzyme MMP-1 (collagenase 1) ([5]; human skin organ culture model) | procollagen I production ([5]; human skin organ culture model) | up-regulation of the pro-inflammatory cytokines that underlie retinoid-induced skin irritation ([5]; past studies) | histology of the wound site (skin wounds; 1% cream, after 13 days) | skin irritation and inflammation at the wound site (skin wounds; 1% cream, after 13 days) | healing of skin wounds compared to control rats (skin wounds; 1.0% cream, ~100 mgs daily to wound periphery, 13 days) |
| --- | --- | --- | --- | --- | --- | --- | --- | --- | --- | --- | --- | --- | --- |
| CC1=C(/C=C/C(C)=C\C=C\C(C)=C\C(=O)N2CCCC(=O)C2)C(C)(C)CCC1 [Example 3, 1-((2E,4E 6Z,8E)-3,7-dimethyl-9-(2,6,6-trimethylcyclohex-1-en-1-yl)nona-2,4,6,8-tetranonyl)piperidin-3-one] | did not produce an inflammatory response | reduced the number of utriculi as compared to control | low | low | much lower levels of the various cytokines than did ATRA | capable of protecting fibroblasts from lysis under low-calcium conditions |  |  |  |  |  |  |  |
| CC1=C(/C=C/C(C)=C\C=C\C(C)=C\C(=O)N(C)CC(=O)C2(C)CC2)C(C)(C)CCC1 [Example 4, (2E,4E,6Z,8E)-N,3,7-trimethyl—N-(2-(1-methylcyclopropyl)-2-oxoethyl)-9-(2,6,6-trimethylcyclohex-1-en-1-yl)nona-2,4,6,8-tetraenamide] | did not produce an inflammatory response | reduced the number of utriculi as compared to control | low | low | much lower levels of the various cytokines than did ATRA; also recorded: comparable to Compound 1 | capable of protecting fibroblasts from lysis under low-calcium conditions |  |  |  |  |  |  |  |
| CC1=C(/C=C/C(C)=C\C=C\C(C)=C\C(=O)OCC(=O)C(C)(C)C)C(C)(C)CCC1 [MDI 301] |  |  |  |  |  |  | did not elicit systemic cytokine release | inhibited the major collagen-degrading enzyme (MMP-1, collagenase 1) | induced procollagen I production | did not up-regulate the pro-inflammatory cytokines | confluent layer of epithelial keratinocytes over the wound site and a pronounced zone of fibroblast proliferation with new collagen formation under the epithelial layer | lack of skin irritation (15BR) and lack of inflammation (15CR) | healed more rapidly |
